{"source": "paper PMC3359160", "about": "“Dipeptidyl peptidase IV, aminopeptidase N and DPIV/APN-like proteases in cerebral ischemia” (Journal of Neuroinflammation, 2012)", "key": {"[1]": {"system": "eMCAO-induced infarct volume", "experiment": "Effect of protease inhibitors on infarct volumes after eMCAO (transient focal cerebral ischemia)", "assay_type": "in vivo, male Sprague-Dawley rats", "settings": "rat, icv f.c. 10 μM; for effect on striatal lesion sizes / effect on eMCAO-induced infarct volumes in ipsilateral cortices: 7 days post eMCAO; for reduction of eMCAO-induced infarct volume in ipsilateral cortex compared to vehicle: mean ± S.E.M.", "protocol": "Studies were performed on male Sprague-Dawley rats (250-280 g) obtained from Harlan Winkelmann (Borchen, Germany). Animals were maintained under constant environmental conditions with an ambient temperature of 21 ± 2°C and relative humidity of 40%. They were housed with a 12-h light-dark cycle, food and water were given ad libitum. […] Animals were anesthetized with halothane in a mixture of nitrous oxide/oxygen (70:30) and maintained with 2-3% halothane during the following procedures: rats were placed in a Kopf stereotaxic frame and further anesthetized via a nose cone. For the induction of eMCAO, a burr hole (1 mm diameter) was drilled into the skull (coordinates: anterior 0.50 mm from bregma, lateral 5.2 mm to […]). After careful opening of the dura, a 29-gauge cannula was lowered 7.5 mm below the dura according to the rat brain atlas of Paxinos and Watson. […] After further 5 min, the cannula was slowly withdrawn. Throughout the operation procedure, rats were kept at 37 ± 0.5°C using a thermostatically controlled heating blanket attached to a rectal thermometer. The animals were then placed under a heating lamp to maintain normothermia until recovery. In order to perform the icv application of different protease inhibitors under halothane anesthesia, a second burr hole was drilled into the skull (coordinates: posterior 0.80 mm from bregma, lateral 1.5 mm to […]). Then, a 29-gauge cannula was lowered 4.5 mm below the dura. The icv injection of IPC1755 (2 μl of a 10 mmol/l PBS/DMSO solution, pH 7.4, f.c. 10 μM) was performed according to one of the following time schedules; […] According to legal requirements of the German animal law, animals were kept under anesthesia during each drug injection. Control rats were treated in the same way, except that the corresponding vehicle solution instead of the drug was injected. Thus, potential protective effects of halothane can be excluded. Rats were maintained at 37 ± 0.5°C throughout the operation procedures. In parallel, the body temperature was monitored using a rectal temperature sensor. Subsequently, the animals were placed into an incubator to maintain normothermia until recovery from anesthesia and then returned into their home cage. After a survival time of 7 days after eMCAO, animals were anesthetized by intraperitonial injection of pentobarbital and transcardially perfusion-fixed with saline followed by 4% paraformaldehyde in 0.1 M PBS (pH 7.4). Brains were then removed carefully, post-fixed in the same fixative for 2 h, and placed in a rodent brain matrix (rat, ASI Instruments, Warren, MI, USA). 1-mm coronal brain slices were cut with a razor blade at 14 predetermined anterior-posterior levels. After cryoprotection in 30% sucrose, slices were rapidly frozen in isopentane and stored at -80°C. Four to five cryostat sections (30 μm) from each brain slice were cut in a cryo microtome and stained with toluidine blue. The extent of cortical and striatal damage following ischemic injury was documented with microphotographic images from Nissl-stained slices showing the anterior-posterior level according to the brain atlas of Paxinos and Watson. The volumes of cortical and striatal infarct lesions were measured at eight predetermined anterior-posterior levels by an operator blinded to the group composition. Three-dimensional lesion sizes were calculated by integration of two-dimensional lesion sizes at each stereotactic level and the distances between the various levels. Image analysis was performed with an Eclipse TE 3000 microscope (Nikon, Düsseldorf, Germany), equipped with a 4x objective, and the Lucia software package (Version 4.2.1., Nikon). Data were statistically analyzed by non-paired Student's t-test and given as mean ± S.E.M."}, "cAAP": {"system": "cAAP", "parameters": "method as in Patent EP09169269", "settings": "ref Patent EP09169269; cited from earlier work"}, "DPIV": {"system": "DPIV", "parameters": "method as in Patent EP09169269", "settings": "ref Patent EP09169269; cited from earlier work"}, "T cells": {"system": "T cells", "parameters": "method as in Patent EP09169269", "settings": "ref Patent EP09169269; read-out: IC50, proliferation of T cells; cited from earlier work"}, "DPII": {"system": "DPII", "parameters": "method as in Patent EP09169269", "settings": "ref Patent EP09169269; cited from earlier work"}, "APN": {"system": "APN", "parameters": "method as in Patent EP09169269", "settings": "ref Patent EP09169269; cited from earlier work"}, "DP8/9": {"system": "DP8/9", "parameters": "method as in Patent EP09169269", "settings": "ref Patent EP09169269; cited from earlier work"}, "mononuclear cells": {"system": "mononuclear cells", "parameters": "method as in Patent EP09169269", "settings": "ref Patent EP09169269; read-out: IC50, proliferation of mononuclear cells; cited from earlier work"}, "[2]": {"settings": "in parallel to eMCAO and 6 h and 24 h post insult"}, "[3]": {"settings": "in parallel to eMCAO and 6 h and 24 h post insult, analyzed 7 days post eMCAO"}}, "data": [{"smiles": "N[C@@H](CC(=O)N1CCn2c(nnc2C(F)(F)F)C1)Cc1cc(F)c(F)cc1F", "note": "[sitagliptin, (R)-3-Amino-1-[3-(trifluormethyl)-5,6,7,8-tetrahydro[1,2, 4]triazol[4,3-a]pyrazin-7-yl]-4-(2,4,5-trifluorphenyl)butan-1-on]", "values": [{"measurement": "effect on striatal lesion sizes", "setting": "[1]; [2]", "result": "neither sitagliptin nor selective DPII or DP8/9 inhibition affected"}, {"measurement": "reduction of eMCAO-induced infarct volume in ipsilateral cortex compared to vehicle", "setting": "[1]; [3]", "result": "21.1 ± 5.8", "unit": "%"}]}, {"smiles": "CC[C@@H](C)[C@H](N)C(=O)N1Cc2ccccc2C1.Cl", "note": "[selective DP8/9 inhibitor, (2S,3R)-2-(2-amino-3-methyl-1-oxopentan-1-yl)-1,3-dihydro-2H-isoindole hydrochloride]", "values": [{"measurement": "effect on eMCAO-induced infarct volumes in ipsilateral cortices", "setting": "[1]; [2]", "result": "did not decrease"}, {"measurement": "effect on striatal lesion sizes", "setting": "[1]; [2]", "result": "neither sitagliptin nor selective DPII or DP8/9 inhibition affected"}]}, {"smiles": "NCC[C@H](N)C(=O)N1CCCCC1", "note": "[selective DPII inhibitor, L-2,4-Diaminobutyrylpiperidinamide]", "values": [{"measurement": "effect on eMCAO-induced infarct volumes in ipsilateral cortices", "setting": "[1]; [2]", "result": "did not decrease"}, {"measurement": "effect on striatal lesion sizes", "setting": "[1]; [2]", "result": "neither sitagliptin nor selective DPII or DP8/9 inhibition affected"}]}, {"smiles": "CCCCCCCCCCCCCCCC(=O)OC(C(=O)NCC(C)(C)CNC(=O)CC(N)Cc1cc(F)ccc1F)C(N)Cc1ccccc1", "note": "(stereo not shown) [IPC1755]", "values": [{"measurement": "IC50", "setting": "cAAP", "result": 0.02, "unit": "µM"}, {"measurement": "IC50", "setting": "DPIV", "result": 0.06, "unit": "µM"}, {"measurement": "IC50", "setting": "T cells", "result": 34, "unit": "µM"}, {"measurement": "IC50", "setting": "DPII", "result": 166, "unit": "µM"}, {"measurement": "IC50", "setting": "APN", "result": 0.03, "unit": "µM"}, {"measurement": "IC50", "setting": "DP8/9", "result": 85, "unit": "µM"}, {"measurement": "effect on striatal lesion sizes", "setting": "[1]; all three time schedules (Figure 7C columns b-d)", "result": "did not affect striatal lesion sizes"}, {"measurement": "cortical lesion size, % of control damage of vehicle-treated animals", "setting": "[1]; exclusively 6 and 24 h post eMCAO, analyzed 7 days post eMCAO", "result": "107.5 ± 12.8", "unit": "%"}, {"measurement": "reduction of eMCAO-induced infarct volume in ipsilateral cortex compared to vehicle", "setting": "[1]; [3]", "result": "48.8 ± 7.9", "unit": "%"}, {"measurement": "IC50", "setting": "mononuclear cells", "result": 36, "unit": "µM"}]}]}
